Here are results for 26 compounds from patent publication US20090018134A1, “Compounds - 945” (AstraZeneca AB, priority 2007, published 2009).

T1 sequence (P42345 1362-2549): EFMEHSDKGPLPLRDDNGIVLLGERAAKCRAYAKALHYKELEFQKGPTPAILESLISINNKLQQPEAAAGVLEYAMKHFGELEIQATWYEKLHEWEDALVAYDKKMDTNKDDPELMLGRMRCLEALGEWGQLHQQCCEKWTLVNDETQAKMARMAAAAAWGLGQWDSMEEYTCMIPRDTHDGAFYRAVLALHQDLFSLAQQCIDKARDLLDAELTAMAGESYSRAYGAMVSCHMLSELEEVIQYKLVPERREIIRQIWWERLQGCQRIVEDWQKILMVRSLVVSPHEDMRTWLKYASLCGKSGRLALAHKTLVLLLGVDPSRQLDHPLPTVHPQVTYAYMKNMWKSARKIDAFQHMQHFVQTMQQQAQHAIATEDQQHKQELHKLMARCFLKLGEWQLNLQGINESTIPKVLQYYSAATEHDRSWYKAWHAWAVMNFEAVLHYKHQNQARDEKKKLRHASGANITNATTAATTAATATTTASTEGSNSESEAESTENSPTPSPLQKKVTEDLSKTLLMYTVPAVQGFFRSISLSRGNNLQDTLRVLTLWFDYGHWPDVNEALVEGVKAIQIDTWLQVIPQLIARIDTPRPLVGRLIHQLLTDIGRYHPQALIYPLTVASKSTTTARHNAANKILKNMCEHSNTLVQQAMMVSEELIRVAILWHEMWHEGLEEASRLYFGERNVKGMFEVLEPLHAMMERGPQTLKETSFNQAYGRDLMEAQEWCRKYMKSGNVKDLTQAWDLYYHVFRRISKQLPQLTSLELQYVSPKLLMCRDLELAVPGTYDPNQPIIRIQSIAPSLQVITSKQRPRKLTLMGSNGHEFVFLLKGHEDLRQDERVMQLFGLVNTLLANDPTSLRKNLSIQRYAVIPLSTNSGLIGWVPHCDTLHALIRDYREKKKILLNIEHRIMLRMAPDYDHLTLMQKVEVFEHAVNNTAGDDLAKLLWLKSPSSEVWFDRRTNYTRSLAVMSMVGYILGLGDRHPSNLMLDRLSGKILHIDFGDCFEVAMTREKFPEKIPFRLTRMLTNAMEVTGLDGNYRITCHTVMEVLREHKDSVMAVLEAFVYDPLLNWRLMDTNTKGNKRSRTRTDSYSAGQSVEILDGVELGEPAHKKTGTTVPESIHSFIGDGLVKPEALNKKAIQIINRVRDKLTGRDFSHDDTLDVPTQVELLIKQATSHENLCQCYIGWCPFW

One experiment has as its target T1, mTOR (Homo sapiens, UniProt P42345).
T1 construct: FLAG; made in house
Put plainly: In Vitro mTOR Kinase Assay (Echo), Test (a)(ii). It counts as biochemical. The settings on record: read-out: mTOR Kinase Assay (Echo). The gist of the method: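 Compounds were acoustically dispensed, then incubated with FLAG-tagged mTOR (1362-2549) for 2 hours at room temperature. Reactions were quenched with EDTA plus detection antibody and AlphaScreen beads and left overnight in the dark before reading. Loss of phospho-T389 signal gave IC50 values.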
With `Cc1nc(S(=O)(=O)C2(c3cc(N4CCOC[C@@H]4C)nc(-c4ccc(NC(=O)Nc5cnn(C)c5)cc4)n3)CC2)sc1C` [Example 81, 1-[4-[4-[1-[(4,5-Dimethyl-1,3-thiazol-2-yl)sulfonyl]cyclopropyl]-6-[(3S)-3-methylmorpholin-4-yl]pyrimidin-2-yl]phenyl]-3-(1-methylpyrazol-4-yl)urea], the IC50 was 8.13 nM.

The same experiment, now with this note: table of enzyme assay Test (a)(ii); read-out: Test (a)(ii) IC50.
As to `Cc1nc(C)c(S(=O)(=O)C2(c3cc(N4CCOC[C@@H]4C)nc(-c4ccc(NC(=O)NCCF)cc4)n3)CC2)s1` [Example 78e, 1-[4-[4-[1-[(2,4-dimethyl-1,3-thiazol-5-yl)sulfonyl]cyclopropyl]-6-[(3S)-3-methylmorpholin-4-yl]pyrimidin-2-yl]phenyl]-3-(2-fluoroethyl)urea], the IC50 is 23.9 nM.
On to `Cc1nc(C)c(S(=O)(=O)C2(c3cc(N4CCOC[C@@H]4C)nc(-c4ccc(NC(=O)Nc5cnn(C)c5)cc4)n3)CC2)s1` [Example 78f, 1-[4-[4-[1-[(2,4-dimethyl-1,3-thiazol-5-yl)sulfonyl]cyclopropyl]-6-[(3S)-3-methylmorpholin-4-yl]pyrimidin-2-yl]phenyl]-3-(1-methylpyrazol-4-yl)urea], for which the IC50 stood at 29.1 nM.
In the case of `C[C@H]1COCCN1c1cc(C2(S(=O)(=O)CCC(C)(C)O)CC2)nc(-c2ccc(NC(=O)NC3CC3)cc2)n1` [Example 79, 3-Cyclopropyl-1-[4-[4-[1-(3-hydroxy-3-methylbutyl)sulfonylcyclopropyl]-6-[(3S)-3-methylmorpholin-4-yl]pyrimidin-2-yl]phenyl]urea], the IC50 is 18.6 nM.
For `CNC(=O)Nc1ccc(-c2nc(N3CCOC[C@@H]3C)cc(C3(S(=O)(=O)CCC(C)(C)O)CC3)n2)cc1` [Example 79a, 1-[4-[4-[1-(3-hydroxy-3-methylbutyl)sulfonylcyclopropyl]-6-[(3S)-3-methylmorpholin-4-yl]pyrimidin-2-yl]phenyl]-3-methylurea], the IC50 was 22.2 nM.
On the same count and under the same terms, the value for `C[C@H]1COCCN1c1cc(C2(S(=O)(=O)CCC(C)(C)O)CC2)nc(-c2ccc(NC(=O)NCCO)cc2)n1` [Example 79b, 3-(2-hydroxyethyl)-1-[4-[4-[1-(3-hydroxy-3-methylbutyl)sulfonylcyclopropyl]-6-[(3S)-3-methylmorpholin-4-yl]pyrimidin-2-yl]phenyl]urea] was 10.9 nM; that for `C[C@H]1COCCN1c1cc(C2(S(=O)(=O)CCC(C)(C)O)CC2)nc(-c2ccc(NC(=O)NCCF)cc2)n1` [Example 79d, 3-(2-fluoroethyl)-1-[4-[4-[1-(3-hydroxy-3-methylbutyl)sulfonylcyclopropyl]-6-[(3S)-3-methylmorpholin-4-yl]pyrimidin-2-yl]phenyl]urea] was 16.1 nM.
For the compound `C[C@H]1COCCN1c1cc(C2(S(=O)(=O)CCC(C)(C)O)CC2)nc(-c2ccc(NC(=O)Nc3cnn(C)c3)cc2)n1` [Example 79e, 1-[4-[4-[1-(3-hydroxy-3-methylbutyl)sulfonylcyclopropyl]-6-[(3S)-3-methylmorpholin-4-yl]pyrimidin-2-yl]phenyl]-3-(1-methylpyrazol-4-yl)urea], the IC50 was 25.9 nM.
Take `CCNC(=O)Nc1ccc(-c2nc(N3CCOC[C@@H]3C)cc(C3(S(=O)(=O)CCC(C)(C)O)CC3)n2)cc1` [Example 79f, 1-ethyl-3-[4-[4-[1-(3-hydroxy-3-methylbutyl)sulfonylcyclopropyl]-6-[(3S)-3-methylmorpholin-4-yl]pyrimidin-2-yl]phenyl]urea]: the IC50 stood at 39.8 nM.
Take `Cc1nc(S(=O)(=O)C2(c3cc(N4CCOC[C@@H]4C)nc(-c4ccc(NC(=O)NCC(F)F)cc4)n3)CC2)sc1C` [Example 80, 3-(2,2-Difluoroethyl)-1-[4-[4-[1-[(4,5-dimethyl-1,3-thiazol-2-yl)sulfonyl]cyclopropyl]-6-[(3S)-3-methylmorpholin-4-yl]pyrimidin-2-yl]phenyl]urea]: the IC50 was 19.7 nM.
Take `Cc1nc(S(=O)(=O)C2(c3cc(N4CCOC[C@@H]4C)nc(-c4ccc(NC(=O)NCCF)cc4)n3)CC2)sc1C` [Example 80a, 1-[4-[4-[1-[(4,5-dimethyl-1,3-thiazol-2-yl)sulfonyl]cyclopropyl]-6-[(3S)-3-methylmorpholin-4-yl]pyrimidin-2-yl]phenyl]-3-(2-fluoroethyl)urea]: the IC50 stood at 14.6 nM.
As for `Cc1nc(S(=O)(=O)C2(c3cc(N4CCOC[C@@H]4C)nc(-c4ccc(NC(=O)NC5CC5)cc4)n3)CC2)sc1C` [Example 80b, 3-cyclopropyl-1-[4-[4-[1-[(4,5-dimethyl-1,3-thiazol-2-yl)sulfonyl]cyclopropyl]-6-[(3S)-3-methylmorpholin-4-yl]pyrimidin-2-yl]phenyl]urea], the IC50 was found to be 10.3 nM.
In the case of `Cc1nc(S(=O)(=O)C2(c3cc(N4CCOC[C@@H]4C)nc(-c4ccc(NC(=O)NCCO)cc4)n3)CC2)sc1C` [Example 80c, 1-[4-[4-[1-[(4,5-dimethyl-1,3-thiazol-2-yl)sulfonyl]cyclopropyl]-6-[(3S)-3-methylmorpholin-4-yl]pyrimidin-2-yl]phenyl]-3-(2-hydroxyethyl)urea], the IC50 was 9.21 nM.
As for `CNC(=O)Nc1ccc(-c2nc(N3CCOC[C@@H]3C)cc(C3(S(=O)(=O)c4nc(C)c(C)s4)CC3)n2)cc1` [Example 80d, 1-[4-[4-[1-[(4,5-dimethyl-1,3-thiazol-2-yl)sulfonyl]cyclopropyl]-6-[(3S)-3-methylmorpholin-4-yl]pyrimidin-2-yl]phenyl]-3-methylurea], the IC50 is 9.51 nM.
In the case of `CCNC(=O)Nc1ccc(-c2nc(N3CCOC[C@@H]3C)cc(C3(S(=O)(=O)c4nc(C)c(C)s4)CC3)n2)cc1` [Example 80e, 3-[4-[4-[1-[(4,5-dimethyl-1,3-thiazol-2-yl)sulfonyl]cyclopropyl]-6-[(3S)-3-methylmorpholin-4-yl]pyrimidin-2-yl]phenyl]-1-ethylurea], the IC50 stood at 14.3 nM.
Consider `Cc1nc(S(=O)(=O)C2(c3cc(N4CCOC[C@@H]4C)nc(-c4ccc(NC(=O)Nc5cnn(C)c5)cc4)n3)CC2)sc1C` [Example 81, 1-[4-[4-[1-[(4,5-Dimethyl-1,3-thiazol-2-yl)sulfonyl]cyclopropyl]-6-[(3S)-3-methylmorpholin-4-yl]pyrimidin-2-yl]phenyl]-3-(1-methylpyrazol-4-yl)urea], for which the IC50 amounted to 13.7 nM.
As for `CNC(=O)Nc1ccc(-c2nc(N3CCOC[C@@H]3C)cc(C3(S(=O)(=O)c4ccc(F)cc4C)CC3)n2)cc1` [Example 82, 1-[4-[4-[1-(4-Fluoro-2-methylphenyl)sulfonylcyclopropyl]-6-[(3S)-3-methylmorpholin-4-yl]pyrimidin-2-yl]phenyl]-3-methylurea], the IC50 amounted to 9.39 nM.
`Cc1cc(F)ccc1S(=O)(=O)C1(c2cc(N3CCOC[C@@H]3C)nc(-c3ccc(NC(=O)NC4CC4)cc3)n2)CC1` [Example 82a, 3-cyclopropyl-1-[4-[4-[1-(4-fluoro-2-methylphenyl)sulfonylcyclopropyl]-6-[(3S)-3-methylmorpholin-4-yl]pyrimidin-2-yl]phenyl]urea]: the IC50 came to 26.5 nM.
On to `Cc1cc(F)ccc1S(=O)(=O)C1(c2cc(N3CCOC[C@@H]3C)nc(-c3ccc(NC(=O)NCCO)cc3)n2)CC1` [Example 82b, 1-[4-[4-[1-(4-fluoro-2-methylphenyl)sulfonylcyclopropyl]-6-[(3S)-3-methylmorpholin-4-yl]pyrimidin-2-yl]phenyl]-3-(2-hydroxyethyl)urea], for which the IC50 came to 7.57 nM.
The same measure, in the same setting: the value for `Cc1cc(F)ccc1S(=O)(=O)C1(c2cc(N3CCOC[C@@H]3C)nc(-c3ccc(NC(=O)NCCF)cc3)n2)CC1` [Example 82c, 3-(2-fluoroethyl)-1-[4-[4-[1-(4-fluoro-2-methylphenyl)sulfonylcyclopropyl]-6-[(3S)-3-methylmorpholin-4-yl]pyrimidin-2-yl]phenyl]urea] was 18.5 nM; that for `Cc1cc(F)ccc1S(=O)(=O)C1(c2cc(N3CCOC[C@@H]3C)nc(-c3ccc(NC(=O)NCC(F)F)cc3)n2)CC1` [Example 82d, 3-(2,2-difluoroethyl)-1-[4-[4-[1-(4-fluoro-2-methylphenyl)sulfonylcyclopropyl]-6-[(3S)-3-methylmorpholin-4-yl]pyrimidin-2-yl]phenyl]urea] was 24.3 nM; that for `CCNC(=O)Nc1ccc(-c2nc(N3CCOC[C@@H]3C)cc(C3(S(=O)(=O)c4ccc(F)cc4C)CC3)n2)cc1` [Example 82e, 3-ethyl-1-[4-[4-[1-(4-fluoro-2-methylphenyl)sulfonylcyclopropyl]-6-[(3S)-3-methylmorpholin-4-yl]pyrimidin-2-yl]phenyl]urea] was 20.8 nM.
Consider `Cc1cc(F)ccc1S(=O)(=O)C1(c2cc(N3CCOC[C@@H]3C)nc(-c3ccc(NC(=O)Nc4cnn(C)c4)cc3)n2)CC1` [Example 82f, 1-[4-[4-[1-(4-fluoro-2-methylphenyl)sulfonylcyclopropyl]-6-[(3S)-3-methylmorpholin-4-yl]pyrimidin-2-yl]phenyl]-3-(1-methylpyrazol-4-yl)urea], for which the IC50 is 27.3 nM.
On the same count and under the same terms, the value for `C[C@H]1COCCN1c1cc(C2(S(=O)(=O)c3ccncc3)CCC2)nc(-c2ccc(NC(=O)NCCO)cc2)n1` [Example 83, 3-(2-Hydroxyethyl)-1-[4-[4-[(3S)-3-methylmorpholin-4-yl]-6-(1-pyridin-4-ylsulfonylcyclobutyl)pyrimidin-2-yl]phenyl]urea] was 3.46 nM; that for `C[C@@H](CO)NC(=O)Nc1ccc(-c2nc(N3CCOC[C@@H]3C)cc(C3(S(=O)(=O)c4ccncc4)CCC3)n2)cc1` [Example 83a, 3-[(2S)-1-hydroxypropan-2-yl]-1-[4-[4-[(3S)-3-methylmorpholin-4-yl]-6-(1-pyridin-4-ylsulfonylcyclobutyl)pyrimidin-2-yl]phenyl]urea] was 4.83 nM.
With `C[C@H](CO)NC(=O)Nc1ccc(-c2nc(N3CCOC[C@@H]3C)cc(C3(S(=O)(=O)c4ccncc4)CCC3)n2)cc1` [Example 83b, 3-[(2R)-1-hydroxypropan-2-yl]-1-[4-[4-[(3S)-3-methylmorpholin-4-yl]-6-(1-pyridin-4-ylsulfonylcyclobutyl)pyrimidin-2-yl]phenyl]urea], the IC50 came out at 11.4 nM.
Consider `C[C@H]1COCCN1c1cc(C2(S(=O)(=O)c3ccncc3)CCC2)nc(-c2ccc(NC(=O)NC(C)(C)CO)cc2)n1` [Example 83c, 3-(1-hydroxy-2-methylpropan-2-yl)-1-[4-[4-[(3S)-3-methylmorpholin-4-yl]-6-(1-pyridin-4-ylsulfonylcyclobutyl)pyrimidin-2-yl]phenyl]urea], for which the IC50 amounted to 12.4 nM.
